For one data set, the system named is ICAM-1. As to the kind of experiment: ICAM-1 cell integrated intensity in HLMVEC treated with TNF-α (immunofluorescence). Format: cell-based, human. Conditions: HLMVEC + 0.5 ng/mL TNF-α, 24 h; amino acids 20x HMDB, Nac/Cit/Car 5 mM as bracketed. As for the experimental part:
(§1) Primary Human Lung Microvascular Endothelial Cells (HLMVEC; Lonza) were seeded at 6,000 cells per well in Endothelial Cell Growth Basal Medium-2 (Lonza) supplemented with Fetal Bovine Serum (FBS; Lonza), human EGF (Lonza), human VEGF (Lonza), R3-Insulin-like Growth Factor-1 (Lonza), ascorbic acid (Lonza), hydrocortisone (Lonza), human FGF-beta (Lonza), and gentamicin/amphotericin-b (Lonza) in a 96-well plate (Thermo Fisher). The cells were incubated for 45 minutes at room temperature, then incubated overnight at 37° C./5% CO2.
(§2) Following overnight incubation, cell were washed once with 150 μL of Dulbecco's phosphate buffered saline (DPBS; Gibco), and then treated with Endothelial Basal Medium MCB-131 (amino acid, glucose, sodium pyruvate, and phenol red free; US Biologicals) containing a defined custom amino acid concentration based on physiological concentrations in blood of patients with SCD (thus recapitulating observed metabolic imbalances such as the depletion of certain essential amino acids including arginine and aspartate and enrichment of certain non-essential amino acids including glutamate and asparagine), dialyzed FBS (Hyclone), human EGF (Lonza), human VEGF (Lonza), R3-Insulin-like Growth Factor-1 (Lonza), ascorbic acid (Lonza), hydrocortisone (Lonza), human FGF-beta (Lonza), and gentamicin/amphotericin-b (Lonza), glucose, 10 mM HEPES, sodium pyruvate, and sodium bicarbonate supplemented with one of the following: • a. PBS (vehicle control), • b. 0.5 ng/mL Tumor Necrosis Factor alpha (TNFα) and PBS, or; • c. 0.5 ng/mL TNF-α and amino acid treatments at 20× mean physiological concentrations in plasma based on values published in the Human Metabolome Database (HMDB) in PBS.
(§3) After 24 hours of treatment, cells were washed once with 150 μL of DPBS (Gibco), then fixed with 4% paraformaldehyde. Following fixation, cells were stained with anti-ICAM-1 [MEM-111] (mouse IgG2a anti-human; abcam) and anti-VCAM1 [1.4C3] (mouse IgG1, K anti-human; abcam) primary antibodies at 1000×, and 100× dilutions respectively. Cells were then stained with Goat anti-Mouse IgG2a Cross-Adsorbed Secondary Antibody, Alexa Fluor 594 (Invitrogen) and Goat anti-Mouse IgG1 Cross-Adsorbed Secondary Antibody, Alexa Fluor 647 (Invitrogen) secondary antibodies. Nuclei were stained with Hoechst 3342 (Life Technologies).
(§4) Antibody binding was detected by fluorescence microscopy using a high content imager (Molecular Devices). Images were analyzed using MetaXpress 6 software to determine the integrated intensity per cell for each wavelength corresponding to ICAM-1 or VCAM-1.

Data set [1] has as its system RBCs of healthy whole blood. As to the kind of experiment: RBC deformability (Elongation Index, LORRCA ektacytometry), ex vivo TBHP oxidation of healthy whole blood. The settings on record: healthy donor 2, single amino acid treatments. Format: cell-based, human. The source says: Whole blood from healthy African American and/or Hispanic donors was obtained from Research Blood Components, LLC based on the following donor selection criteria: Adult age (between 18 and 50 years), normal BMI (<30), and absence of other confounding clinical conditions. Whole blood from SCD donors were obtained from BioIVT based on the following donor selection criteria: Patients with genotypes HbSS, HbSC, HbS/β^0 and at least 1-2 months gap since last blood transfusion. Whole blood was shipped on ice on the same day as blood draw. Upon receipt, the blood sample was aliquoted and stored in the refrigerator until used for studies.
RBC deformability measurements were conducted with the Laser Optical Rotational Red Cell Analyzer (LORRCA) from RR Mechatronics in a temperature-controlled environment (37° C.). Briefly, an even layer of RBCs suspended in polyvinylpyrrolidone (PVP) is subjected to shear stress gradient (0.3 to 30 Pa) through two concentric cylinders and the resulting changes in RBC shape or deformability are measured by a laser beam diffraction pattern. The captured images of RBC shape in response to increasing shear stress are then analyzed by the LORRCA program to calculate Elongation Index (EI).
Healthy RBCs have higher deformability ≥0.5 EI and SCD RBCs have lower deformability or EI values as studied by LORRCA ektacytometry in the field. […] The induced hemolysis model in this disclosure involves use of tert-butyl hydroperoxide (TBHP) to lower EI of RBCs.
The ex vivo hemolysis study disclosed here involves overnight treatment of whole blood with vehicle as a control and specific amino acids followed by rapid oxidation (5 min) with TBHP. Method for oxidation of whole blood with tert-butyl hydroperoxide has been used in prior literature (Diederich L, et al, Front Physiol. 2018 May 11; 9:332). RBC deformability or shape changes are then measured with LORRCA ektacytometry.
Whole blood aliquots stored in the fridge were brought up to room temperature while gently shaking on a rocker at low speed for an hour to ensure gradual and uniform suspension of red blood cells prior to deformability measurements. Vehicle control used in the study was 1× Dulbecco's […]) and amino acids disclosed herein were added (at either final 10× or 2.5 mM concentration as indicated) to corresponding vehicle and amino acid treatment conditions. The samples were then incubated overnight at 37° C. The next day, 25 μl of whole blood was taken from each treatment condition and added to 5 mL Elon ISO viscous solution from RR Mechatronics. The sample was inverted 15-20 times to ensure proper mixing of the treated RBCs with the Elon ISO solution followed by loading the sample on LORRCA and capturing RBC deformability or shape measurements over the applied shear gradient. The remaining whole blood treatments were returned to incubator (37° C.) until deformability measurements were completed for all treatments. To the remaining whole blood treatment samples, TBHP solution (5.0-6.0 M in Decane, Sigma) was added at 2.5 mM final concentration from a 100 mM freshly prepared stock and incubated for further 5 min at 37° C. 25 μl of this TBHP-treated sample was immediately removed at the end of the 5 min incubation and added to the Elon ISO solution for RBC deformability measurement after oxidation. Included in the Tables 13-15 are EI measurements at ½ EImax shear stress 1.69 Pa and EImax shear stress 30 Pa from these studies and FIG. 1 captures EI measurements for all shear stress points for the indicated treatment conditions.

A further data set relates to VCAM-1. Briefly: VCAM-1 cell integrated intensity in HLMVEC treated with TNF-α (immunofluorescence). Format: cell-based, human. How it is done:
as §1, §2, §3, §4

The nature of data set [2]: Pharmacokinetics following oral dose administration to male Sprague-Dawley rats (plasma amino acids, LC-MS). Conditions: analyte after oral gavage of RCitNacQCarLHKVS. How it is done:
A pharmacokinetic (PK) analysis was performed on plasma concentrations of various combinations of amino acid compounds administered by oral gavage to male Sprague-Dawley rats. Four animals were dosed with RCitNacQCarLHKVS, a test article comprising ten amino acid components: arginine, citrulline, N-acetylcysteine (Nac), glutamine, carnitine, leucine, histidine, lysine, valine, and serine (Table 19). Animals were fasted for 2 hours prior to dose administration. Plasma samples were taken immediately pre-dose and 0.5, 1, 2, 3, 4, and 5 hours post-dose.
Bioanalysis of collected plasma samples for amino acid content was performed at Axcella Health using an LC-MS method (Section 2.1). Bioanalytical data were analyzed using noncompartmental analysis with PHOENIX® WINNONLIN® (v8.1).
An LC/MS method utilizing HILIC chromatography and high-resolution mass spectrometry was used to quantify amino acids in rat plasma. […]
PK parameters of test article components were determined from individual rat plasma concentration-time data by employing a noncompartmental approach using Phoenix WINNONLIN® (Version 8.1) software. […] This program analyzed data using the standard methods described by Gibaldi and Perrier (see M. Gibaldi and D. Perrier, Pharmacokinetics, 2nd edition, New York: Marcel-Dekker, Inc.; 1982.).

The subject of another data set is HLMVEC. Briefly: META-rank score, composite of VCAM1, ICAM1 and IL6 in the HLMVEC model. Conditions: HLMVEC + TNF-α; lower score = more optimal; 20x HMDB / 5 mM. Format: cell-based, human. How it is done: The ability of single amino acids and combinations to simultaneously impact these phenotypes was measured by a META-rank score (Tables 17 and 18). META-rank score is a composite measure that considers the optimal impact on all 3 phenotypes (e.g. decrease VCAM1, ICAM1, and IL6) in the HLMVEC model.

The subject of a further data set is IL-6. As to the kind of experiment: Secreted IL-6 in HLMVEC treated with TNF-α (FirePlex). Format: cell-based, human. The settings on record: HLMVEC + 0.5 ng/mL TNF-α, 24 h; amino acids 20x HMDB, Nac/Cit/Car 5 mM as bracketed. How it is done:
as §1, §2
Supernatants were analyzed for IL-6 concentrations using a Human Cytokines FirePlex-HT Panel 1 kit (abcam) according to the manufacturer-supplied instructions. Particles were imaged on a high content imager (Molecular Devices), and results were interpolated from a standard curve with FirePlex Analysis Workbench Software (abcam) according manufacturer's recommendations.

In data set [3] the test system is whole blood from healthy controls. As to the kind of experiment: ROS (DCF fluorescence) in whole blood of healthy control donors, H2O2-induced. Format: cell-based, human. How it is done:
(§5) Whole blood samples were appropriately diluted in Ca^2+- and Mg^2+-free Dulbecco's phosphate buffered saline (DPBS, Life Technologies) and the concentration of erythrocytes (RBC/mL) was measured on a Cellometer K2 Fluorescent Viability Cell Counter according to the manufacturer's RBC/AOPI protocol (Nexcelom Biosciences).
(§6) Cells were then diluted to 1×10^6 RBC/mL into either prewarmed 37° C. […] 2′-7′-dichlorofluorescin diacetate (DCF, Millipore Sigma), 20 mM in dimethyl sulfoxide (DMSO, Fisher) were added to a working concentration of 100 μM. Cells were incubated with dye for 15 minutes at 37° C., 5% CO2 in a tissue culture incubator, washed once, and resuspended in the 0.9 volumes of the same prewarmed 37° C. buffer with 5 minute spins at 500×g, accel/decal=5 in a swing arm centrifuge (Beckman Coulter). […] Where possible due to solubility constrains, pH-7.4-adjusted stock solutions of amino acids were used. Wells were mixed by pipetting and plates incubated at 37° C., 5% CO2 in a tissue culture incubator for 30 minutes. Optionally, 40 mM H2O2 (Millipore Sigma) freshly prepared in the same buffer was added to bring the concentration to 2 mM, wells mixed by pipetting, and plates were incubated an additional 30, 60, 120, or 240 minutes before fluorescence measurement of ROS signal on a Synergy H4 (BioTek) microplate reader with excitation=488 nm and emission=530 nm, and gain either set to autogain, 75, or 100.

Data set [4] deals with sickle cell disease patient blood. As to the kind of experiment: ROS (DCF fluorescence) in sickle cell disease patient whole blood. Format: cell-based, human. How it is done: as §5, §6

As for `C[N+](C)(C)CC(O)CC(=O)[O-]` (stereo not drawn) [Car, carnitine], in the data set on ICAM-1, the “ICAM-1 Cell Integrated Intensity Median” value was −0.013. For the same molecule, in data set [1], the “EI over vehicle control, both ½ EImax and EImax” value is recorded as “higher than the vehicle”. The “VCAM-1 expression in HLMVEC” value in the data set on VCAM-1 (0.5 ng/mL TNF-α, amino acids at 20× HMDB, 24 hours) is “moderate effect”. Besides, in the data set on VCAM-1 (HLMVEC + 0.5 ng/mL TNF-α, 24 h, amino acids 20x HMDB, Nac/Cit/Car 5 mM as bracketed), the “VCAM-1 Cell Integrated Intensity Median” value is given as −0.017. In data set [2], the “plasma concentration over the five-hour time course” value is on record as “continuously increased”. For the same molecule, in the data set on HLMVEC, the “Meta-Rank (Table 18)” value amounted to 12.5 and the “Metarank (Table 17)” value came out at 24. For the same molecule, the “Secreted IL6 Median” value in the data set on IL-6 is given as −0.022.
Consider `N[C@@H](CS)C(=O)O` [cysteine], for which the “ROS measured in whole blood” value in data set [3] (healthy control donors treated with H2O2, dose-responsive) is recorded as “reduced”; in data set [4] (both treated with H2O2 and untreated, in DPBS), “reduced”.
Consider `N[C@@H](Cc1c[nH]c2ccccc12)C(=O)O` [tryptophan], for which the “ROS signal” value in data set [3] (healthy donor blood, 10×) is given as “increased”; in data set [4] (10×) it was “increased”.

(Values after patent US20230000808A1, “COMPOSITIONS AND METHODS EXCLUDING OR WITH REDUCED GLUTAMINE FOR THE TREATMENT OF HEMOGLOBINOPATHIES AND THALASSEMIAS” (AXCELLA HEALTH INC., priority 2019, published 2023).)
